From patent US20040198707A1, “Means and method for hormonal contraception” (priority 2001, published 2004)

Assay: conversion factors for progestogens: amount equivalent to a given amount of levonorgestrel
Details: estimate of the amount of progestogen equivalent to a given amount of levonorgestrel (levonorgestrel = 1)
Text: In order to determine for a specific biogenic estrogen or synthetic estrogen the amounts that are equivalent to a cited amount of ethinyl estradiol or 17beta-estradiol, the method described by Allen and Doisy may suitably be used (Allen A., Doisy E. A., “An ovarian hormone. Preliminary report on its localization, extraction and partial purification, and action in test animals. JAMA (1923), 81, 819-821). Similarly, in order to determine for a given progestogen the amount equivalent to cited amount of levonorgestrel the method originally described by McPhail can be used (Mc Phail M. K. “The assay of progestin” J Physiol (1934), 83, 145-156). A more recent description of this method can be found in an article written by Overbeek G. A., de Visser J. “A new substance with progestational activity”, Acta Endocrinol (1956), 22,318-329. It is noted that the aforementioned methods will provide useful indications about the anticipated estrogen potency or progestogen potency of a particular hormone. However, to accurately determine the equivalent amounts that are referred to above, it is advisable to additionally conduct in vivo studies in human females.
For guidance the table below provides the conversion factors for a number of progestogens that may suitably be used in the method of the invention. These conversion factors may be used to calculate, for each progestogen mentioned in the table, an estimate of the amount of said progestogen which is equivalent to a given amount of levonorgestrel.

Row | Structure (SMILES) | Conversion factor
1 | CC(=O)[C@H]1CC[C@H]2[C@@H]3C=CC4=CC(=O)CC[C@@]4(C)[C@@H]3CC[C@]12C [dydrogesterone] | 133
2 | C#C[C@]1(OC(C)=O)CC[C@H]2[C@@H]3CCC4=CC(=NO)CC[C@@H]4[C@H]3CC[C@@]21CC (mixture of isomers) [norgestimate] | 1.7
3 | C[C@]12CCC(=O)C=C1[C@@H]1C[C@@H]1[C@H]1[C@@H]3[C@@H]4C[C@@H]4[C@@]4(CCC(=O)O4)[C@@]3(C)CC[C@@H]12 [drospirenone] | 20
4 | C#C[C@]1(O)CC[C@H]2[C@@H]3CCC4=CC(=O)CC[C@@H]4[C@H]3CC[C@@]21C [norethisterone] | 7
